# According to ChEMBL document CHEMBL3885881, “DrugMatrix”:
# Species on record: Rattus norvegicus
# Test: DrugMatrix - Regimen: Daily Repeat
# Assay type: toxicity, organism-based, Sprague-Dawley
# Parameters: regimen Daily Repeat, gender Male, age 6-8 weeks
# Details: in vivo, route none, vehicle 100 % UNTREATED
# [1] = 0 mg/kg, 120 h, tissue Blood, dose level Control, time 5 day
# [2] = 0 mg/kg, 120 h, tissue Plasma, dose level Control, time 5 day
# [3] = 0 mg/kg, […], tissue Blood, dose level Control, time 14 day
# [4] = 0 mg/kg, […], tissue Plasma, dose level Control, time 14 day
# [5] = 50 mg/kg, 120 h, tissue Blood, dose level Low, time 5 day
# [6] = 50 mg/kg, 120 h, tissue Plasma, dose level Low, time 5 day
# [7] = 50 mg/kg, […], tissue Blood, dose level Low, time 14 day
# [8] = 50 mg/kg, […], tissue Plasma, dose level Low, time 14 day
# [9] = 60 mg/kg, 120 h, tissue Blood, dose level M1, time 5 day
substance,measurement,setting,value
Diet_Restriction,ABSOLUTE BASOPHIL,[1],0 CELLS/uL
same,ABSOLUTE EOSINOPHIL,[1],42.67 CELLS/uL
same,ABSOLUTE LYMPHOCYTE,[1],11593.33 CELLS/uL
same,ABSOLUTE MONOCYTE,[1],174.33 CELLS/uL
same,ABSOLUTE SEGMENTED NEUTROPHIL,[1],1356.33 CELLS/uL
same,BASOPHIL,[1],0%
same,EOSINOPHIL,[1],0.33%
same,ERYTHROCYTE COUNT,[1],5.67 x10E6/uL
same,HEMATOCRIT,[1],43.37%
same,HEMOGLOBIN,[1],12.33 G/DL
same,LEUKOCYTE COUNT,[1],13.17 x10E3/uL
same,LYMPHOCYTE,[1],88%
same,MEAN CORPUSCULAR HEMOGLOBIN,[1],21.77 pg
same,MEAN CORPUSCULAR HEMOGLOBIN CONCENTRATION,[1],36.93 G/DL
same,MEAN CORPUSCULAR VOLUME,[1],58.9 fL
same,NUCLEATED RED BLOOD CELLS,[1],0 /100WBC
same,PLATELET COUNT,[1],942.33 x10E3/uL
same,ALANINE AMINOTRANSFERASE,[2],42.67 u/L
same,ALBUMIN,[2],4.2 G/DL
same,ALKALINE PHOSPHATASE,[2],336.33 u/L
same,ASPARTATE AMINOTRANSFERASE,[2],74 u/L
same,BLOOD UREA NITROGEN,[2],12.67 mg/dL
same,CARBON DIOXIDE,[2],32.33 mmol/L
same,CHOLESTEROL,[2],78.67 mg/dL
same,CREATINE PHOSPHOKINASE,[2],847.33 u/L
same,CREATININE,[2],0.22 mg/dL
same,LACTATE DEHYDROGENASE,[2],139.67 u/L
same,POTASSIUM,[2],6.74 MEQ/L
same,TOTAL BILIRUBIN,[2],0.13 mg/dL
same,URIC ACID,[2],1.3 mg/dL
same,ABSOLUTE BASOPHIL,[3],0 CELLS/uL
same,ABSOLUTE EOSINOPHIL,[3],46.33 CELLS/uL
same,ABSOLUTE LYMPHOCYTE,[3],13977 CELLS/uL
same,ABSOLUTE MONOCYTE,[3],264.67 CELLS/uL
same,ABSOLUTE SEGMENTED NEUTROPHIL,[3],1445.33 CELLS/uL
same,BASOPHIL,[3],0%
same,EOSINOPHIL,[3],0.33%
same,ERYTHROCYTE COUNT,[3],6.27 x10E6/uL
same,LEUKOCYTE COUNT,[3],15.73 x10E3/uL
same,LYMPHOCYTE,[3],89%
same,MEAN CORPUSCULAR HEMOGLOBIN,[3],22.27 pg
same,MEAN CORPUSCULAR HEMOGLOBIN CONCENTRATION,[3],37.13 G/DL
same,NEUTROPHIL,[3],9%
same,NUCLEATED RED BLOOD CELLS,[3],0 /100WBC
same,PLATELET COUNT,[3],923 x10E3/uL
same,ALANINE AMINOTRANSFERASE,[4],48.67 u/L
same,ALKALINE PHOSPHATASE,[4],360 u/L
same,ASPARTATE AMINOTRANSFERASE,[4],67 u/L
same,CARBON DIOXIDE,[4],32 mmol/L
same,CHLORIDE,[4],99 MEQ/L
same,CHOLESTEROL,[4],92.67 mg/dL
same,CREATINE PHOSPHOKINASE,[4],220.67 u/L
same,CREATININE,[4],0.19 mg/dL
same,LACTATE DEHYDROGENASE,[4],88.33 u/L
same,LIPASE,[4],10 u/L
same,PHOSPHORUS,[4],13.07 mg/dL
same,POTASSIUM,[4],6.69 MEQ/L
same,TOTAL BILIRUBIN,[4],0.17 mg/dL
same,TOTAL PROTEIN,[4],6.33 G/DL
same,URIC ACID,[4],1.9 mg/dL
same,ABSOLUTE BASOPHIL,[5],0 CELLS/uL
same,ABSOLUTE EOSINOPHIL,[5],0 CELLS/uL
same,ABSOLUTE LYMPHOCYTE,[5],5557.67 CELLS/uL
same,ABSOLUTE MONOCYTE,[5],33.33 CELLS/uL
same,ABSOLUTE SEGMENTED NEUTROPHIL,[5],409 CELLS/uL
same,BASOPHIL,[5],0%
same,EOSINOPHIL,[5],0%
same,ERYTHROCYTE COUNT,[5],6.2 x10E6/uL
same,HEMOGLOBIN,[5],13.47 G/DL
same,LEUKOCYTE COUNT,[5],6 x10E3/uL
same,LYMPHOCYTE,[5],93%
same,MEAN CORPUSCULAR HEMOGLOBIN,[5],21.73 pg
same,MEAN CORPUSCULAR HEMOGLOBIN CONCENTRATION,[5],37.13 G/DL
same,MEAN CORPUSCULAR VOLUME,[5],58.43 fL
same,MONOCYTE,[5],0.67%
same,NEUTROPHIL,[5],6.33%
same,NUCLEATED RED BLOOD CELLS,[5],0 /100WBC
same,PLATELET COUNT,[5],1004.67 x10E3/uL
same,ALBUMIN,[6],4.4 G/DL
same,ALKALINE PHOSPHATASE,[6],272.67 u/L
same,ASPARTATE AMINOTRANSFERASE,[6],69 u/L
same,BLOOD UREA NITROGEN,[6],10 mg/dL
same,CHOLESTEROL,[6],67.33 mg/dL
same,CREATININE,[6],0.15 mg/dL
same,GLUCOSE,[6],121.33 mg/dL
same,LACTATE DEHYDROGENASE,[6],95.33 u/L
same,LIPASE,[6],10 u/L
same,PHOSPHORUS,[6],10.03 mg/dL
same,POTASSIUM,[6],6.08 MEQ/L
same,SODIUM,[6],146.6 MEQ/L
same,TOTAL BILIRUBIN,[6],0.13 mg/dL
same,TOTAL PROTEIN,[6],6.27 G/DL
same,URIC ACID,[6],1.13 mg/dL
same,ABSOLUTE BASOPHIL,[7],0 CELLS/uL
same,ABSOLUTE EOSINOPHIL,[7],34 CELLS/uL
same,ABSOLUTE LYMPHOCYTE,[7],10004 CELLS/uL
same,ABSOLUTE MONOCYTE,[7],145.67 CELLS/uL
same,ABSOLUTE SEGMENTED NEUTROPHIL,[7],1049.67 CELLS/uL
same,BASOPHIL,[7],0%
same,EOSINOPHIL,[7],0.33%
same,ERYTHROCYTE COUNT,[7],7.11 x10E6/uL
same,HEMATOCRIT,[7],38.27%
same,LEUKOCYTE COUNT,[7],11.23 x10E3/uL
same,LYMPHOCYTE,[7],89.33%
same,MEAN CORPUSCULAR HEMOGLOBIN,[7],19.8 pg
same,MEAN CORPUSCULAR HEMOGLOBIN CONCENTRATION,[7],36.77 G/DL
same,MEAN CORPUSCULAR VOLUME,[7],53.83 fL
same,NEUTROPHIL,[7],9%
same,NUCLEATED RED BLOOD CELLS,[7],0 /100WBC
same,PLATELET COUNT,[7],891.33 x10E3/uL
same,ALANINE AMINOTRANSFERASE,[8],40.33 u/L
same,ALBUMIN,[8],4.2 G/DL
same,ALKALINE PHOSPHATASE,[8],255.67 u/L
same,ASPARTATE AMINOTRANSFERASE,[8],75 u/L
same,BLOOD UREA NITROGEN,[8],15 mg/dL
same,CHOLESTEROL,[8],62.33 mg/dL
same,CREATINE PHOSPHOKINASE,[8],467.33 u/L
same,CREATININE,[8],0.22 mg/dL
same,GLUCOSE,[8],163.67 mg/dL
same,LACTATE DEHYDROGENASE,[8],62.33 u/L
same,POTASSIUM,[8],5.28 MEQ/L
same,TOTAL BILIRUBIN,[8],0.1 mg/dL
same,TOTAL PROTEIN,[8],6.1 G/DL
same,URIC ACID,[8],1.5 mg/dL
same,ABSOLUTE BASOPHIL,[9],0 CELLS/uL
same,ABSOLUTE EOSINOPHIL,[9],49.33 CELLS/uL
same,ABSOLUTE LYMPHOCYTE,[9],3766.67 CELLS/uL
same,ABSOLUTE MONOCYTE,[9],29.33 CELLS/uL
same,ABSOLUTE SEGMENTED NEUTROPHIL,[9],454.67 CELLS/uL
